Legend:
murine leukaemia, L1210 = test: Cytotoxicity in vitro (Microculture Tetrazolium Assay), L1210; assay type: cell-based; settings: Mus musculus, 48 h; L1210 cells, incubated 2 days, inhibition of proliferation by 50%
Procedure: (§1) Three cell lines are used:
1 murine leukaemia, L1210,
(§2) The cells are cultured in complete RPMI 1640 culture medium containing 10% foetal calf serum, 2 mM glutamine, 50 units/ml of penicillin, 50 μg/ml of streptomycin and 10 mM Hepes, pH=7.4. The cells are distributed in microplates and exposed to the cytotoxic compounds. The cells are then incubated for 2 days (L1210) or 4 days (A549, HT29). The number of viable cells is then quantified by means of a calorimetric assay, the Microculture Tetrazolium Assay (Cancer Res. 1987, 47, 939-942).
(§3) The results are expressed as IC50, the concentration of cytotoxic agent that inhibits the proliferation of the treated cells by 50%.

[1] = system: human non-small-cell lung carcinoma, A549; test: Cytotoxicity in vitro (Microculture Tetrazolium Assay), A549; assay type: cell-based; settings: 96 h, A549 cells, incubated 4 days, inhibition of proliferation by 50%
Procedure: as §1
1 human non-small-cell lung carcinoma, A549,
as §2, §3

[2] = system: human colon carcinoma, HT29; test: Cytotoxicity in vitro (Microculture Tetrazolium Assay), HT29; assay type: cell-based; settings: HT-29, 96 h, HT29 cells, incubated 4 days, inhibition of proliferation by 50%
Procedure: as §1
1 human colon carcinoma, HT29
as §2, §3

P388 (murine leukaemia) = test: In vivo anti-tumour activity on P388 leukaemia; design: species or system female BDF1 mice; settings: P388 i.p. in BDF1 mice, intraperitoneal route on day 1, active from the 50 mg/kg dose
Procedure: Line P388 (murine leukaemia) was supplied by the National Cancer Institute (Frederick, USA). The tumour cells (10^6 cells) were inoculated on day 0 into the peritoneal cavity of female BDF1 mice (Iffa-Credo, France) weighing from 18 to 20 g (groups of 6 animals). The products were administered by the intraperitoneal route on day 1 (D1).
The anti-tumour activity is expressed as % T/C: [formula]

Compound | IC50 (murine leukaemia, L1210) [nM] | IC50 [1] [nM] | IC50 [2] [nM] | T/C (survival of the treated animals) (P388 (murine leukaemia)) [%]
COc1cc(C2C3=C(COC3=O)N(C)c3cc4c(cc32)OCO4)cc(OC)c1OC (racemic) [Example 1, (±)-4-Methyl-6,7-methylenedioxy-9-(3,4,5-trimethoxyphenyl)-4,9-dihydrofuro[3,4-b]quinolin-1(3H)-one] | 53 | 102 | 104 | ≥ 200
COc1cc(CN2C3=C(C(=O)OC3)C(c3cc(OC)c(OC)c(OC)c3)c3cc4c(cc32)OCO4)cc(OC)c1O (racemic) [Example 8, (±)-4-(3,5-Dimethoxy-4-hydroxybenzyl)-6,7-methylenedioxy-9-(3,4,5-trimethoxyphenyl)-4,9-dihydrofuro[3,4-b]quinolin-1(3H)-one] | 62 | 147 | 153 | –
COc1cc(C2C3=C(COC3=O)Nc3cc4c(cc32)OCO4)cc(OC)c1OC (racemic) [Example 10, (±)-6,7-Methylenedioxy-9-(3,4,5-trimethoxyphenyl)-4,9-dihydrofuro[3,4-b]quinolin-1(3H)-one] | 12 | 22 | 18 | –

Reference: US6548515B1, “Dihydrofuro[3,4-b]quinolin-1-one compounds” (Les Laboratories Servier, priority 1999, dated 2003)
